The conditions of data set [1]: phase II clinical trial; cited from earlier work.
A short description of data set [2]: Dynamic vapor sorption (DVS) test. In kind it is physicochemical. The conditions noted are these: for DVS (wt %, 80% RH) / DVS (wt %, 90% RH): 25° C.
The nature of data set [3]: Pharmacokinetic experiments in Beagles. The conditions noted are these: Beagle, male, PO, 10 mg/kg, plasma. Type of data set: in vivo. The protocol:
The present disclosure preferred crystal forms I, III, and V of the compound in the above examples for pharmacokinetic experiments in Beagles, and the relevant experiments are as follows:
Animal: 9 Beagles, male, divided into three groups with 3 in each group, weight ranging from 10 to 13 kg (source & certificate number: Beijing Marshall Biotechnology Co., Ltd., No. 1103182011000161)
Administration mode and dosage: PO: 10 mg/kg
Preparation: 0.5% CMC-Na was used as the solvent, and 400 mg of each of the three different crystal forms of compound A were weighed and added to the corresponding 79 mL of solvent, respectively. The mixture was subjected to ultrasonication for 20 minutes, added with a stirrer, and mixed thoroughly for 3 hours (the storage period from compound preparation to animal administration at room temperature was less than 6 hours). After the drug solution became a homogeneous and fine suspension, which was observed by the naked eye, the solvent was gradually added until the specified volume reached the target concentration. The preparation was stirred for 10 minutes at room temperature before administration, and stirred continuously during administration.
Time points for sampling: the time points for blood sampling in the PO group were 0.167, 0.5, 1, 2, 4, 6, 8, and 24 hours.
Animals in the PO group were fasted overnight except for free access to water before administration, and resumed food supply 4 hours after administration.
After Beagles in the […] were administered, blood was collected from Beagles by jugular vein puncture according to the time points for sampling. About 1.0 mL of blood was collected at each time point and transferred to an anticoagulant EP tube (containing 10 μL of EDTA-K2, 375 mg/mL). The tube was gently inverted three times, stored in an ice box (no more than 30 minutes), and centrifuged at 3200 g for 10 minutes at 4° C. The plasma was transferred to an ultra-low temperature refrigerator and stored until detection.
Sample pretreatment process: 40 μL of sample was taken, and 160 μL of acetonitrile solution containing 0.1% FA and 200 ng/mL of mixed standard solution was added to precipitate the protein. The mixture was vortexed and mixed well, and the sample was centrifuged in a 4° C. centrifuge at 13000 pm for 10 minutes. 100 μL of the supernatant was transferred to another 96 deep well plate, then 100 μL of methanol:water (1:3, v:v) solution containing 0.1% FA was added thereto, and the mixture was shaken and mixed for 10 minutes.
• Ion source: ion electrospray (ESI) • Ionization mode: positive ion mode (Positive) • Detection mode (mode): multiple reaction monitoring (MRM) • Ion spray voltage: 5500 V • Ion spray temperature (turbo ion spray temp): 550° C. • Curtain gas type: nitrogen setting: 35 • Collision cell gas type (CAD gas type): nitrogen setting: medium • Nebulizing gas type (gas 1): nitrogen setting: 55.00 • Auxiliary gas type (gas 2): nitrogen setting: 55.00
• Chromatographic column: poroshell 120 EC-C18 (4.6×50 mm, 2.7 μm) • Mobile phase A: 0.1% formic acid aqueous solution • Mobile phase B: a solution of 0.1% formic acid in methanol • Auto sampler wash solution (rinse port wash solution): 50% methanol • Column temperature: 40° C. • Flow rate: 0.55 mL/min • Auto sampler temperature (sample tray temp): 10° C. • Injection volume: 3 μL • Lift of presser foot (needle stroke): 49 mm • Auto sampler rinse setting (rinse pump setting): rinse port only • Auto sampler rinse mode (rinse mode): before aspiration • Auto sampler rinse volume for needle (rinse volume): 500 μL • Dip time when rinsing the injection needle (rinse dip time): 2 seconds
The data would be analyzed using WinNonlin (version 5.2.1 Pharsight, Mountain View, CA) through a non-compartmental model to obtain PK parameters (selecting Cmax, Tmax, AUClast, T1/2, and other parameters according to different routes of administration).

Data set [4] can be described thus: Crystal form transformation under humidity / drying (XRPD). In kind it is physicochemical. Conditions: humidity or drying as stated in the value. The text has this: Crystal form I can be obtained by the preparation method in Example 3. […] (FIG. 29). Combined with the DVS test results (FIG. 30), it can be seen that the mutual transformation between crystal forms I and IV is reversible.
Crystal form IV is a hygroscopic product of crystal form I under high humidity environment, and can be obtained by slurrying crystal form I or crystal form V in a mixed solvent of water/acetone with a water content of 50% to 95%.
Crystal form VI was obtained by slurrying crystal form I or crystal form V at 60° C. in a mixed solvent of water/acetone with a water content of 10% (volume ratio) at 60° C.
Crystal form VIII is a hydrate, but the hydrate is unstable.

Data set [5] is described as follows: Physical and chemical stability of crystal forms at 60° C. (closed) and 40° C./75% RH (open). In kind it is physicochemical. As for the experimental part: The physical and chemical stability of crystal forms I, III, and V at 60° C. (closed) and 40° C./75% RH (open) for 7 days were investigated respectively.
(closed) and 40° C./75% RH (open) for 3 months were investigated.

Data set [6] in a line: Solubility tests in biological media of SGF, FaSSIF and FeSSIF. In kind it is physicochemical. As for the experimental part:
The instrument used for liquid chromatography analysis was Agilent HPLC 1260 series, and the analytical method is shown in the table below.
The results of solubility tests of crystal forms I, III, and V in biological media of SGF, FaSSIF, and FeSSF are as shown in Table E and FIG. 43. There was little difference in the solubility of the above three crystal forms in different biological media, and the solubility in SGF was higher than 5 mg/mL.

Molecules are shown by their SMILES. “Also recorded” adds a separate entry of the source. Bounds are passed on as bounds.

Results on six compounds are retold here after US20240293420A1, “PHARMACEUTICAL COMPOSITION, PREPARATION, AND PREPARATION METHOD THEREFOR AND USE THEREOF” (WUHAN LL SCIENCE AND TECHNOLOGY DEVELOPMENT CO., LTD., priority 2021, published 2024).

`COc1cc(C(C)C)c(Oc2cnc(N)nc2N)cc1S(N)(=O)=O` [AF-219]: in data set [1], the dysgeusia result is recorded as “serious dysgeusia problem” and the “efficacy on refractory cough” value was “good efficacy”.

Broadly, the Cmax is the highest concentration seen after dosing. In general, Tmax refers to the time from dosing to the highest level. Regarding `COC(=O)N1CCO[C@@H](Cc2c(-c3c(F)cc(S(N)(=O)=O)cc3F)nc3cc(Cl)ccn23)C1` [Crystal form I, methyl (S)-2-((7-chloro-2-(2,6-difluoro-4-sulfamoylphenyl)imidazo[1,2-a]pyridin-3-yl)methyl)morpholine-4-carboxylate], the “XRPD before and after the DVS test” value in data set [2] is listed as “remained unchanged”. The “DVS (wt %, 80% RH)” value in data set [2] (80% RH) came to 6.8 wt %. For the same compound, in data set [2], the “DVS (wt %, 90% RH)” value was found to be 6.9 wt %. Further, the “hygroscopicity (DVS)” value in data set [2] (80% RH) was found to be 6.8%. Besides, in data set [3], the “AUClast” value was found to be 7926 ± 6235 ng·h/mL. Further, the “Cmax” value in data set [3] is on record as 991 ± 800 ng/mL. In addition, the “T1/2” value in data set [3] amounted to 11.9 ± 3.65 h. Further, the “Tmax” value in data set [3] was 2.00 ± 0.00 h. Also, in data set [4], the crystal form transformation entry is “absorbed moisture under high humidity environment and was transformed into crystal form IV as a hydrate; also recorded: easy to transform into crystal form IV when RH >40%”. Further, the “Purity - 7 days (peak area %)” value was determined as 99.38 peak area % in data set [5] (40° C./75% RH (open), 7 days) and 99.37 peak area % in data set [5] (60° C. (closed), 7 days). For the same compound, the XRPD result in data set [5] (40° C./75% RH (open), 7 days) is reported as “transformed into crystal form IV as a hydrate”. In data set [5], the “Initial purity (peak area %)” value was 99.38 peak area %. Moreover, the “XRPD of remaining solid” value in data set [6] (FaSSIF, 0.5 h) was “transformed into crystal form IV as a hydrate”; in data set [6] (FeSSIF, 0.5 h), “transformed into crystal form IV as a hydrate”. For the same compound, the pH in data set [6] (FaSSIF, 0.5 h) was 6.4; in data set [6] (FaSSIF, 2 h) it was 6.4; in data set [6] (FaSSIF, 24 h), 6.4; in data set [6] (FeSSIF, 0.5 h), 5.0; in data set [6] (FeSSIF, 2 h), 5.1; in data set [6] (FeSSIF, 24 h) it was 5.1. The pH was determined as 1.2 in data set [6] (SGF, 0.5 h); 1.3 in data set [6] (SGF, 2 h); 1.2 in data set [6] (SGF, 24 h).

For `COC(=O)N1CCO[C@@H](Cc2c(-c3c(F)cc(S(N)(=O)=O)cc3F)nc3cc(Cl)ccn23)C1` [Crystal form IV, methyl (S)-2-((7-chloro-2-(2,6-difluoro-4-sulfamoylphenyl)imidazo[1,2-a]pyridin-3-yl)methyl)morpholine-4-carboxylate], the crystal form transformation result in data set [4] was “transformed into crystal form I as an anhydrous crystal form after vacuum drying and dehydration”.

The solubility is how much of the substance goes into solution per volume. A high value points to much dissolved substance. Consider `COC(=O)N1CCO[C@@H](Cc2c(-c3c(F)cc(S(N)(=O)=O)cc3F)nc3cc(Cl)ccn23)C1` [Crystal form V, methyl (S)-2-((7-chloro-2-(2,6-difluoro-4-sulfamoylphenyl)imidazo[1,2-a]pyridin-3-yl)methyl)morpholine-4-carboxylate], for which, in data set [2] (80% RH), the “DVS (wt %, 80% RH)” value was 0.7 wt %. In data set [2], the “DVS (wt %, 90% RH)” value was 0.9 wt %. The “AUClast” value in data set [3] was 2637 ± 1750 ng·h/mL. Also, the “Cmax” value in data set [3] stood at 170 ± 99.4 ng/mL. In data set [3], the “T1/2” value was determined as 44.4 ± 28.9 h. Also, the “Tmax” value in data set [3] came out at 4.67 ± 0.67 h. In addition, the “Purity - 7 days (peak area %)” value is on record as 99.28 peak area % in data set [5] (40° C./75% RH (open), 7 days) and 99.30 peak area % in data set [5] (60° C. (closed), 7 days). Besides, in data set [5], the “Initial purity (peak area %)” value stood at 99.29 peak area %. The “XRPD of remaining solid” value in data set [6] (FaSSIF, 0.5 h) is given as “Unchanged”; in data set [6] (FaSSIF, 2 h) it was “Unchanged”; in data set [6] (FaSSIF, 24 h), “Unchanged”; in data set [6] (FeSSIF, 0.5 h), “Unchanged”; in data set [6] (FeSSIF, 2 h), “Unchanged”; in data set [6] (FeSSIF, 24 h), “Unchanged”. Besides, the pH amounted to 6.4 in data set [6] (FaSSIF, 0.5 h); 6.4 in data set [6] (FaSSIF, 2 h); 6.4 in data set [6] (FaSSIF, 24 h); 5.0 in data set [6] (FeSSIF, 0.5 h); 5.0 in data set [6] (FeSSIF, 2 h); 5.1 in data set [6] (FeSSIF, 24 h). The pH worked out at 1.2 in data set [6] (SGF, 0.5 h); 1.1 in data set [6] (SGF, 2 h); 1.2 in data set [6] (SGF, 24 h). Further, the solubility at 2 h in data set [6] (pH 1.1, simulated gastric fluid, thermodynamic from solid, SGF, 2 h, visual observation) was > 5000 µg/mL.

On to `COC(=O)N1CCO[C@@H](Cc2c(-c3c(F)cc(S(N)(=O)=O)cc3F)nc3cc(Cl)ccn23)C1` [Crystal form VI, methyl (S)-2-((7-chloro-2-(2,6-difluoro-4-sulfamoylphenyl)imidazo[1,2-a]pyridin-3-yl)methyl)morpholine-4-carboxylate], for which, in data set [4], the crystal form transformation result was “transformed into crystal form I after being placed under ambient humidity (35% RH) for a few minutes”.

Turning to `COC(=O)N1CCO[C@@H](Cc2c(-c3c(F)cc(S(N)(=O)=O)cc3F)nc3cc(Cl)ccn23)C1` [Crystal form VIII, methyl (S)-2-((7-chloro-2-(2,6-difluoro-4-sulfamoylphenyl)imidazo[1,2-a]pyridin-3-yl)methyl)morpholine-4-carboxylate], the crystal form transformation entry in data set [4] is recorded as “transformed into crystal form I”.
